In US20170003275A1, “METHOD TO IDENTIFY COMPOUNDS ABLE TO BIND TO THE ROSSMANN FOLD OF C-TERMINAL-BINDING PROTEINS, IDENTIFIED COMPOUNDS AND MEDICAL USES THEREOF” (CONSIGLIO NAZIONALE DELLE RICERCHE, priority 2013, published 2017):
pEC50: −log10 of the molar value. Where two headings read alike, the source gives them in different places.

Experiments:
recombinant BARS = target: T1, recombinant BARS (Rattus norvegicus, UniProt Q9Z2F5); experiment: NAD competition assay ([3H]-NAD+ binding to BARS, dot blot); conditions: for NAD Displac. (%): 10 μM [3H]-NAD+, molecules 0.01 to 100 μM, 2 h 37° C.; for competition for the binding of NAD to BARS (selection): 0.01 to 100 μM
T1 construct: His; made in house
Description: Five μg of recombinant BARS were incubated for 2 h at 37° C. in 100 μl buffer (20 mM HEPES at pH 7.4, 25 mM NaCl and 10 μM [^3H]-NAD^+ (specific activity: 1 μCi/μmol)) in the presence of a range of concentrations (from 0.01 to 100 μM) of the molecules listed in table 1. At the end of the incubation BARS was recovered by trapping it to nitrocellulose using a Dot-Blot apparatus (Bio-Rad Laboratories, UK) according to manufacturer instruction. The samples were washed three times in ice-cold HEPES buffer (20 mM, pH 7.4). The amount of radiolabelled NAD bound to BARS was measured using a BetaImager (BioSpace Lab); the total amount of BARS bound to nitrocellulose was evaluated by red ponceau staining (Sigma-Aldrich) according to manufacturer instructions. Quantitative analyses were performed using GraphPad Prism Software.
A second virtual library was performed using the whole KEGG COMPOUND Database. […] To rank the molecules according to their affinity for BARS, the inventors set up a new assay for determining the capability of the 28 candidate molecules to compete for the binding of NAD to BARS. To this purpose, radiolabeled NAD and recombinant BARS were incubated for 2 h in the presence of a range of concentrations (from 0.01 to 100 μM) of the molecules. At the end of the incubation BARS was recovered by trapping it to nitrocellulose using a dot blot apparatus, and the radiolabelled NAD bound to BARS was evaluated by measuring the radioactivity using a BetaImager (BioSpace Lab).

HeLa cells = experiment: Cell viability assay (Hoechst cell number); conditions: for effect on cell viability: even at 100 microM; for 50% Viability: 0.01 to 100 μM
Description: Quantitative analyses were performed using a GraphPad Prism Software.
At the end of the incubation the cells have been fixed, stained with Hoechst to label the DNA and analysed using a fluorescence microscope for the automated images acquisition and analysis (Olympus ScaR). […] An EC50 was calculated for the remaining molecules.

[1] = system: Zonula Occludens (ZO1), CtBP target gene; experiment: Expression of CtBP target genes, Western blot of Zonula Occludens; type: cell-based, human; conditions: HeLa; for protein levels of Zonula Occludes: 2 and 4 days, Western blot; for minimal effective concentration: minimum effective concentration, Zonula Occludens protein, read-out: CtBP target genes increase (corepressive activity inhibition) Western Blot
Description: At the end of the incubations part of the samples was analyzed by western blot. To this purpose, the samples were washed with ice-cold PBS and lysed in 100 μl of SDS sample buffer. The samples were then separated on 8% SDS-PAGE gels, transferred onto nitrocellulose, and subjected to Western blotting using an antibody against Zonula Occludens (anti ZO1; Cell Signaling N. Cat. 5406) and an antibody against GAPDH (AbD Serotec) as a reference. The anti ZO1 antibody was used at a 1:1000 dilution; the anti GAPDH antibody was used at an 1:100000 dilution. The nitrocellulose membranes were subjected to ECL (as described above). The freeware ImageJ software (http://imagej.nih.gov) was used for quantitative analysis.

[2] = Homo sapiens, 48 h, read-out: 50% Viability

pEC50 (HeLa cells; [2])	pEC50 (HeLa cells; read-out: 50% Viability, 48 h, 0.01 to 100 μM)	SMILES	NAD Displac. (%) (recombinant BARS)	competition for the binding of NAD to BARS (selection) (recombinant BARS)	effect on cell viability (HeLa cells; 48 h)	protein levels of Zonula Occludes [1]	minimal effective concentration ([1]; Homo sapiens)	50% Viability (HeLa cells; 48 h)	minimal effective concentration [1]
< 4.00		NCc1ccccc1CC(=O)N[C@@H]1C(=O)N2C(C(=O)O)=C(CSc3nnnn3CC(=O)O)CS[C@H]12 [C29, (6R,7R)-7-[2-[2-(Aminomethyl)phenyl]acetamido]-3-[1-(carboxymethyl)-1H-tetrazol-5-ylsulfanylmethyl]-8-oxo-5-thia-1-azabicyclo[4.2.0]-2-octene-2-carboxylic acid]	35%	best competitors	did not affect (or had minor effects)				
< 4.00		COc1cc(C2Oc3c(O)cc(C4Oc5cc(O)cc(O)c5C(=O)C4O)cc3C2CO)ccc1O (stereo not drawn) [C17, 3beta,5,7-Trihydroxy-2alpha-[7-hydroxy-2beta-(4-hydroxy-3-methoxyphenyl)-3alpha-(hydroxymethyl)-2,3-dihydrobenzofuran-5-yl]-2,3-dihydro-4H-benzo[b]pyran-4-one]			did not affect (or had minor effects)				
< 4.00		O=C1C2C3c4ccccc4C(c4ccccc43)C2C(=O)N1C(CO)(CO)CO [C8, (9R,10S,11S,15R)-13-(1,3-dihydroxy-2-(hydroxymethyl)propan-2-yl)-10,11-dihydro-9H-9,10-[3,4]epipyrroloanthracene-12,14(13H,15H) dione]			did not affect (or had minor effects)	able to increase	10 µM		
< 4.00		NC(=O)[C@@H]1CCCN1C(=O)[C@H](Cc1cnc[nH]1)NC(=O)[C@@H]1CCC(=O)N1 [C21, (2S)-N-[(2S)-1-[(2S)-2-carbamoylpyrrolidin-1-yl]-3-(1H-imidazol-5-yl)-1-oxopropan-2-yl]-5-oxopyrrolidine-2-carboxamide]			did not affect (or had minor effects)				
		CCCCOc1ccc(C2=N/C(=C\c3cc(OC)c(OC)cc3OC)C(=O)O2)cc1 [C10, (4Z)-2-(4-butoxyphenyl)-4-[(2,4,5-trimethoxyphenyl)methylidene]-4,5-dihydro-1,3-oxazol-5-one]	30%	best competitors	did not affect (or had minor effects)			Little	
< 4.00		O=C(CCc1ccc(O)cc1)c1c(O)cc(O)cc1O[C@@H]1O[C@H](CO)[C@@H](O)[C@H](O)[C@H]1O [C16, 1-(2,4-dihydroxy-6-{[(2S,3R,4S,5S,6R)-3,4,5-trihydroxy-6-(hydroxymethyl)oxan-2-yl]oxy}phenyl)-3-(4-hydroxyphenyl)propan-1-one]			did not affect (or had minor effects)				
		COc1ccc(-c2coc3cc(O[C@@H]4O[C@H](CO)[C@@H](O)[C@H](O)[C@H]4O)ccc3c2=O)cc1 [C15, 3-(4-methoxyphenyl)-7-{[(2S,3R,4S,5S,6R)-3,4,5-trihydroxy-6-(hydroxymethyl)oxan-2-yl]oxy}-4H-chromen-4-one]			did not affect (or had minor effects)	able to increase	5 µM	Little	
		Cc1c(Cc2c(Cl)cccc2Cl)c(=O)oc2cc(OCC(=O)OCC(=O)c3ccc(Cl)cc3)ccc12 [C12, 2-(4-chlorophenyl)-2-oxoethyl 2-{[3-(2,6-dichlorobenzyl)-4-methyl-2-oxo-2H-chromen-7-yl]oxy}acetate]	23%	best competitors	did not affect (or had minor effects)			Little	
< 4.00		O=P(O)(O)C(O)(Cc1cccnc1)P(=O)(O)O [C26, [1-hydroxy-1-phosphono-2-(pyridin-3-yl)ethyl]phosphonic acid]	30%	best competitors	did not affect (or had minor effects)	able to increase	1 µM		
		C[C@H]1[C@H](NC(=O)C(=NOC(C)(C)C(=O)O)c2csc(N)n2)C(=O)N1S(=O)(=O)O (stereo in doubt) [C28, 2-[(Z)-[1-(2-amino-1,3-thiazol-4-yl)-2-[[(2S,3S)-2-methyl-4-oxo-1-sulfoazetidin-3-yl]amino]-2-oxoethylidene]amino]oxy-2-methylpropanoic acid]	15%		did not affect (or had minor effects)	able to increase	1 µM		
	< 4.00	CN1CCc2c(sc(/N=C/c3cccs3)c2C(N)=O)C1 [C9, 6-methyl-2-[(E)-(thiophen-2-ylmethylidene)amino]-4H,5H,6H,7H-thieno[2,3-c]pyridine-3-carboxamide]			did not affect (or had minor effects)	able to increase			10 µM
6.00		C#C[C@]1(O)CC[C@H]2[C@@H]3CCc4cc(OC5CCCC5)ccc4[C@H]3CC[C@@]21C [C19, 17alpha-Ethynylestradiol 3-cyclopentyl ether]							
		O=C(O)Cc1nn(Cc2nc3cc(C(F)(F)F)ccc3s2)c(=O)c2ccccc12 [C18, 2-[4-Oxo-3-[5-(trifluoromethyl)benzothiazol-2-ylmethyl]-3,4-dihydrophthalazin-1-yl]acetic acid]			did not affect (or had minor effects)			Little	
< 4.00		CC(=O)CC(c1ccc([N+](=O)[O-])cc1)c1c(O)c2ccccc2oc1=O (stereo not drawn) [C5, 4-Hydroxy-3-[1-(4-nitrophenyl)-3-oxobutyl]-2H-1-benzopyran-2-one]			did not affect (or had minor effects)				

SMILES	pEC50 (HeLa cells; [2])	pEC50 (HeLa cells; read-out: 50% Viability, 48 h, 0.01 to 100 μM)	NAD Displac. (%) (recombinant BARS)	competition for the binding of NAD to BARS (selection) (recombinant BARS)	effect on cell viability (HeLa cells; 48 h)	protein levels of Zonula Occludes [1]	minimal effective concentration ([1]; Homo sapiens)	50% Viability (HeLa cells; 48 h)	minimal effective concentration [1]
NS(=O)(=O)Oc1ccc2c3c(c(=O)oc2c1)CCCCC3 [C3, Sulfamic acid 6-oxo-6,7,8,9,10,11-hexahydrocyclohepta[c]-1-benzopyran-3-yl ester]	5.00								
O=C1OC(c2c(O)c3ccccc3oc2=O)c2ccccc21 (stereo not drawn) [C14, 4-hydroxy-3-(3-oxo-1,3-dihydroisobenzofuran-1-yl)-2H-chromen-2-one]	5.00								
COc1cc(CNC(=O)CCCC/C=C/C(C)C)ccc1O [C6, N-(4-Hydroxy-3-methoxybenzyl)-8-methyl-6(E)-nonenamide 8-Methyl-N-vanillyl-trans-6-nonenamide]	< 4.00		20%	best competitors	did not affect (or had minor effects)				
CC(=O)CC(c1ccc(Cl)cc1)c1c(O)c2ccccc2oc1=O (stereo not drawn) [C4, 3-[1-(4-chlorophenyl)-3-oxobutyl]-4-hydroxychromen-2-one]	< 4.00		20%	best competitors	did not affect (or had minor effects)	able to increase	10 µM		
CC(=O)CC(c1ccccc1)c1c(O)c2ccccc2oc1=O (stereo not drawn) [C1, 4-Hydroxy-3-(3-oxo-1-phenylbutyl)-2H-1-benzopyran-2-one]	< 4.00		15%	best competitors	did not affect (or had minor effects)	able to increase	100 µM		
